What was measured:
Format in all cases: cell-based, human
[1] = system: resected cholangiocarcinoma tumor and liver capsule; test: Tivozanib treatment of cholangiocarcinoma tissue in ex vivo perfusion system (H&E, Ki67)
Experimental: In another example, the system of FIG. 7A was used to identify a new target in patients with cholangiocarcinoma. The target is a kinase, SLK, that activates AKT signaling leading to aggressive tumor biology and poor patient outcomes. Although no SLK-specific inhibitor exists, the kinome profiles of available kinase inhibitors was evaluated, and tivozanib was identified. Using tissue from a patient with cholangiocarcinoma in the system of FIG. 7A, tivozanib was evaluated. […] Resected cholangiocarcinoma tumor as well as liver capsule mounted on sample platforms treated with 0-1 mg/ml tivozanib were prepared for IHC, stained with H&E and Ki67 antibody. Cells in control and drug-treated platforms were evaluated for viability, degeneration and necrosis.
In any of the above discussed examples, tissue from system 700 was subject to similar histopathologic evaluations. For example, the tissues were preserved in the 10% neutral buffered formalin, then through the tissue processor and embedded in paraffin and cut at 5-micron sections for hematoxylin and eosin (H&E) slides. Slides were prepared for H&E staining and immunohistochemistry, respectively to detect CD3 (T cells), CD68 (macrophages), Ki-67 and MIBI (mitotic activity). CD3 and CD68 were predilute antibodies as purchased, while Ki-67 and (MIB-1) were run at 1:200 dilution. All stains were done on an automated immunostainer (Ventana Benchmark Ultra). Viability on H&E was defined as preservation of normal tissue architecture, intact nuclei, and normal population of immune cells (qualitative and quantitative). Each sample was compared against day 0 control samples. Ki67 or stains were performed to assess proliferative activity of the tumor cells. Samples stained with Ki67 or MIB1 on day 4 were compared to day 0 samples to confirm no change in proliferative activity.

[2] = system: sidewall peritoneum from a gastric cancer patient (gastric adenocarcinoma); test: Check-point inhibitor evaluation in ex vivo perfusion system, gastric cancer tissue (2-photon imaging); conditions: incubated for 2 days; Alexa488CD44/Alexa594CD45 antibodies
Experimental: (§1) The system of FIG. 7A is well-suited to evaluate immunotherapeutic agents. Given that check-point inhibitors have made their way into the clinic for seemingly most solid tumors, such inhibitors were evaluated in the system of FIG. 7A using a tumor from a patient with gastric adenocarcinoma and a tumor from a patient with colorectal adenocarcinoma. Neither of these histologies have significant response rates to check-point inhibitors outside of select genomic subpopulations, which was not applicable to either patient in this example. FIGS. 12A-12D illustrates results of this example.
(§2) In the top panel, sample platforms with sidewall peritoneum from a gastric cancer patient were incubated with immune checkpoint inhibitor pembrolizumab for 2 days followed by Alexa488CD44/Alexa594CD45 antibodies. Maximum projections of 2-photon images illustrate the intimate contact between CD45-positive cells and the cancer cells. The bottom panel provides a timeseries montage of images taken from liver capsule tissue mounted on sample platforms from a colorectal cancer patient with liver metastases incubated with 5 μg/ml of pembrolizumab for 4 hr. […]
(§3) Image acquisition was performed on an inverted Leica SP8 setup using multiphoton excitation at 870 nm together with a 25×/0.95 W VISIR lens. […] Images were analyzed using ImageJ software. […]

[3] = system: liver capsule tissue from a colorectal cancer patient with liver metastases (colorectal adenocarcinoma); test: Check-point inhibitor evaluation in ex vivo perfusion system, colorectal cancer tissue (timeseries imaging); conditions: 5 μg/ml for 4 hr
Experimental: as §1, §2, §3

[4] = system: SDH-B deficient GIST metastases to the peritoneum; test: Decitabine treatment of GIST tissue in ex vivo perfusion system (H&E, IHC, live imaging); conditions: 0-10 μM in perfusate; tissues harvested after 4 days
Text: The system of FIG. 7A is also well-suited as a translational tool and/or as a tool for enrollment into clinical trials, especially where pre-clinical models are otherwise non-existent. For example, SDH-B deficient GIST is a rare subtype driven by epigenetic silencing of the gene, unresponsive to conventional agents (imatinib) and with no available cell lines or mouse models. Tissue from a patient with SDH-B deficient GIST was utilized in the system of FIG. 7A to investigate decitabine, a potential treatment option being evaluated for this population. Using early demethylation markers as a read-out, changes associated with decitabine treatment at physiologic and supraphysiologic doses were not detected. […] Sample platforms of tissue from the patient with GIST metastases to the peritoneum were cultured in perfusate supplemented with 0-10 μM decitabine. […] Stack projections of live images of control sample at day 0 and day 3 as well as a sample treated with 5 μM decitabine with fluorophore-conjugated antibodies against CD45 and CD117 also show no changes in the decitabine-treated tissue.
In any of the above discussed examples, tissue from system 700 was subject to similar histopathologic evaluations. […] Viability on H&E was defined as preservation of normal tissue architecture, intact nuclei, and normal population of immune cells (qualitative and quantitative). […]

COc1cc2nccc(Oc3ccc(NC(=O)Nc4cc(C)on4)c(Cl)c3)c2cc1OC [tivozanib]
cell death in liver metastases (viability, degeneration, necrosis) ([1]; 0-1 mg/ml, FIGS. 12C-12D): induces cell death
tumor cell effect at physiologic doses ([1]; physiologic doses): tumor cell degeneration
tumor cell effect at supraphysiologic concentrations ([1]; supraphysiologic concentrations): frank necrosis

pembrolizumab
binding of immune cells (CD45-positive) to cancer cells [2]: stimulates binding of immune cells to cancer cells
immune cell engagement with tumor cells [3]: Immune cell engagement was observed
tumor cell lysis / apoptosis of CD44-positive cancer cells bound by CD45-positive cells [3]: captured tumor cell lysis

Nc1ncn([C@H]2C[C@H](O)[C@@H](CO)O2)c(=O)n1 [decitabine]
methylation status of GIST (SDHB, 5-HMC, 5-MC IHC) [4]: no effect
proliferation activity of GIST (Ki67) [4]: no effect
